Entries after “also recorded” stand apart in the source; their conditions may differ.
How the values were obtained:
[1] = Progression of weight, furosemide-study; type: in vivo, Wistar rat
Protocol: During the progression of both studies, the animals were weight-determined twice a week, starting from the date of surgery (laboratory balance model CS2000. Ohaus Corporation, Pine Brook, N.J., USA). The results were calculated corresponding to the post-surgical day of the respective animal.
(§1) Groups A, B and C of the infarction animals received furosemide (Lasix® 250 mg ampoule, Aventis Pharma GmbH, Frankfurt am Main, Germany) starting from day 18 (±2 days) for the whole study in a concentration of 8.6 mg/100 ml in drinking water. This corresponds to an initial dosage of 10 mg/kg/d at a weight of 300 g and an amount of drinking water of 35 ml/d.
Animals from the infarction-placebo group (without furosemide) and all sham-animals received drinking water without supplementation.
(§2) The infarction-furosemide-group corresponds to the blinded infarction-placebo-group of the megestrol acetate-Study (here: infarction-furosemide-group). An additional infarction-surgery group received simple drinking water without furosemide and served as control group for the furosemide-study (here: infarction-placebo-group). In order to expose all animals to equal conditions, in this group the furosemide-study was gavaged unblinded with placebo. A further group is the sham-placebo-group, that corresponds to the blinded sham-placebo-group of the megestrol acetate-study (here: sham-placebo-group).
Like in the megestrol acetate-study, the weight values corresponding to the day post-surgery of the respective animal were compared, but this time the data was analysed as a change of weight starting from the beginning of therapy of the furosemide-study (18th day post-surgery=day 0 of the furosemide-study). This therefore results in a 26 days longer period of observation for the diuretic-study in comparison with the megestrol acetate-study. Furosemide was given until the end of the observation period and to removal of organs, respectively.

[2] = test system: infarction-surgery rats (ligation of the left coronary artery, heart insufficiency); assay: Echocardiography, furosemide-study; type: in vivo, Wistar rat
Protocol: as §1
Between week 28 and 30 post surgery (corresponds to week 22 to 24 in the megestrol acetate-Study or week 25 to 27 in the diuretic study), the heart function of all rats still alive was examined by echocardiography. For this, each rat was first pre-anaesthetised using isoflurane (Curamed Pharma GmbH Karlsruhe, Germany) in a chamber of the anaesthetic unit Univentor 400 Anaesthesia Unit (Agn Tho's, Lidingö, Sweden) pre-anaesthetised and subsequently maintained by using a mask. For the echocardiography examination the thorax region was shaved and the rat was fixed in a position lying on the back. The echocardiography was performed with an Acuson-Sequoia C256 (Siemens, Germany) which was equipped with a 15 MHz sonication head suitable for rat- and mouse echocardiography. The left ventricle (LV) was adjusted in the parastemal long and short axis. […] The diastolic function was evaluated based on the LV-influx profile via the mitral valve (E/A-ratio) by means of a PW-Doppler. The measurement volume of the PW-doppler was placed at the tip of the opened mitral valve flap. The measurements were performed by an independent blinded researcher. In FIG. 1 the progression of weight for all groups is depicted.
as §2

[3] = infarction-furosemide-group, furosemide via drinking water, placebo in the gavage

In the case of NS(=O)(=O)c1cc(C(=O)O)c(NCc2ccco2)cc1Cl [furosemide], the “increase of weight over the whole period of time” value ([1]; infarction-furosemide-group) is reported as 1.4 g/day, the “weight at the end of the observation period” value ([1]; infarction-furosemide-group) is reported as 583 ± 12 g and the “weight gained at the end of the observation period” value ([1]; infarction-furosemide-group) is reported as 81%. The “mean weight at the beginning of the diuretic-study” value ([1]; infarction-furosemide-group, day 18 following surgery) was 322 ± 3 g, the “progress of weight in comparison with the placebo-group with infarction” value ([1]; starting from day 105 after beginning of therapy, significant) was “less pronounced progress” and the “effect on the echocardiographically determined heart function” value ([2]; infarction groups with vs. without furosemide) was “no differences; also recorded: no direct effect”. For the same compound, the A [2, 3] was 0.62 ± 0.05 m/s, the E [2, 3] was 0.84 ± 0.03 m/s and the “E:A” value [2, 3] was 1.61 ± 0.21. The FS [2, 3] was 15.1 ± 1.0 %, the IVS d [2, 3] was 0.13 ± 0.03 cm and the LVEDD [2, 3] was 1.06 ± 0.02 cm. For the same compound, the LVEF [2, 3] was 35.5 ± 2.0 %, the LVESD [2, 3] was 0.90 ± 0.02 cm and the LVHW d [2, 3] was 0.17 ± 0.01 cm.

— patent US8383612B2, “Use of megestrol acetate for improving heart function and the treatment of heart insufficiency” (Par Pharmaceuticals, Inc., priority 2004, dated 2013)
